Measurements from patent publication US11970542B2, “Bispecific antibodies specific for treating hematological malignancies” (FRED HUTCHINSON CANCER CENTER, priority 2017, dated 2024).

Tests used:
[1] = tested on: surface BCMA on MM cell lines (RPMI8226, U266B1, MM1.R, H929) and primary MM samples; test: Effect of GSI on BCMA expression, flow cytometry; format: cell-based, human
Description: FIGS. 11A-11D. Dose dependent effect of the gamma secretase inhibitor, R04929097, on BCMA expression on 4 MM cell lines (11A, 11B) and 7 primary MM samples (11C, 11D). (11A) Surface BCMA expression by MM.1R cells cultured with the indicated concentrations of R04929097; staining with anti-BCMA antibody (black lines) compared to isotype control (grey line). (11B) Fold-change in surface BCMA expression by MM cell lines when cultured with the indicated concentrations of R04929097; fold change indicated relative to untreated MM cells of the same line. (11C) Surface BCMA expression by primary patient MM cells cultured with the indicated concentrations of R04929097. Staining was as described in regard to FIG. 11A. (11D) Fold change in BCMA on primary myeloma cells (n=7) cultured with vary amounts of GSI for […]. Primary and cell lines were cultured at 0.5×10^6 cells/mL. Fold change in BCMA is defined as Treated (MFIBCMA-MFIiso)/Control (MFIBCMA-MFIiso). Data is representative of 3 independent experiments with T cells derived from different donors.
The effect of GSI on BCMA expression was evaluated by incubating four MM cell lines (RPMI8226, U266B1, MM1.R, and H929) and primary MM samples in media containing 0 (DMSO), 0.01, 0.1, and 1.0 μM of GSI and measuring surface BCMA at 5 hr. […] These concentrations are 3-30 fold below the serum levels that are achieved by well tolerated oral dosing regimens of GSI in phase 1 trials in cancer patients.

[2] = tested on: surface BCMA on three multiple myeloma cells lines; test: Antibody Binding Capacity assay (QuantiBrite), BCMA molecules; format: cell-based, human; conditions: 5 μM, 17 hours incubation
Experimental: FIG. 13. Antibody Binding Capacity assay (QuantiBrite, Cat. No. 340495, BD Biosciences) was used according to manufacturer instructions to measure the absolute number of BCMA molecules on the self-surface and accessible to antibody binding following 17 hours incubation in the presence or absence of 5 μM gamma secretase inhibitor (R04929097) on three multiple myeloma cells lines.

[3] = Blood clearance time course of BCMA bispecific with or without GSI; design: species or system mice; conditions: mouse, in vivo
Description: FIG. 15. To ensure our clearing agent was able to effectively clear unbound agent from the blood stream, we conducted a time course experiment to test the impact of the clearing agent on the BCMA bispecific in the presence or absence of GSI. The percent of the injected dose (% ID) was monitored in the blood during a time course experiment by measuring the relative amount of Yttrium^90 in blood samples obtained from mice.

[4] = tested on: CD38 receptor expression in MM cell lines (U266, H929 and L363); test: ATRA effect on CD38 receptor expression in vitro; format: cell-based, human
Description: FIG. 12. […] These studies generated data to refine the process of manipulating CD38 receptor density for the purpose of increasing targeted delivery of radiolabeled DOTA-biotin after CD38 tumor cell pretargeting.

[5] = tested on: surface CD38 on three multiple myeloma cells lines; test: Antibody Binding Capacity assay (QuantiBrite), CD38 molecules; format: cell-based, human; conditions: 65-72 hours treatment
Experimental: FIG. 14. Antibody Binding Capacity assay (QuantiBrite, BD Biosciences) was used according to manufacturer instructions to measure the absolute number of CD38 molecules on the self-surface and accessible to antibody binding following 65-72 hours treatment of ATRA on three multiple myeloma cells lines.

| blood clearance of BCMA bispecific fusion in combination with GSI [3] | Structure (SMILES) | effect on cell viability ([1]; 0.01, 0.1, and 1.0 μM, 5 hr) | concentration of maximal increase in MFI of BCMA staining ([1]; 0.01-1.0 μM tested, 5 hr) [µM] | soluble BCMA levels ([1]; 0.1 and 1.0 μM) | change in MFI of BCMA staining ([1]; all 4 cell lines and primary MM cells, 5 hr) | time to upregulation of BCMA after GSI exposure ([1]; time course) [h] | number of BCMA molecules on the cell surface [2] | CD38 receptor expression ([4]; U266 MM line, solubilized ATRA) | CD38 receptor expression ([4]; three MM cell lines (U266, H929 and L363)) | number of CD38 molecules on the cell surface [5] |
| --- | --- | --- | --- | --- | --- | --- | --- | --- | --- | --- |
| further facilitated blood clearance | CC(C)(C(=O)NCC(F)(F)C(F)(F)F)C(=O)N[C@@H]1C(=O)Nc2ccccc2-c2ccccc21 [R04929097] | did not affect cell viability | 1.0 | decline in soluble BCMA levels | marked increase | ≤ 1 | upregulates surface BCMA target expression |  |  |  |
|  | CC1=C(/C=C/C(C)=C/C=C/C(C)=C/C(=O)O)C(C)(C)CCC1 [ATRA, all-trans retinoic acid] |  |  |  |  |  |  | striking dose dependent increase in expression | dose dependent increase | upregulates surface CD38 target expression |
